Data from ChEMBL document CHEMBL4610000, “Discovery of structurally distinct tricyclic M4 positive allosteric modulator (PAM) chemotypes” (Bioorg Med Chem Lett, 2020).

Assays:
[1] = target: T1, Muscarinic acetylcholine receptor M4 (Homo sapiens, UniProt P08173); experiment: Positive allosteric modulation of human muscarinic M4 receptor expressed in CHO cells co-expressing Gqi5 assessed as increase in acetylcholine-induced calcium mobilization; format: functional, cell-based
T1 sequence (P08173 whole entry): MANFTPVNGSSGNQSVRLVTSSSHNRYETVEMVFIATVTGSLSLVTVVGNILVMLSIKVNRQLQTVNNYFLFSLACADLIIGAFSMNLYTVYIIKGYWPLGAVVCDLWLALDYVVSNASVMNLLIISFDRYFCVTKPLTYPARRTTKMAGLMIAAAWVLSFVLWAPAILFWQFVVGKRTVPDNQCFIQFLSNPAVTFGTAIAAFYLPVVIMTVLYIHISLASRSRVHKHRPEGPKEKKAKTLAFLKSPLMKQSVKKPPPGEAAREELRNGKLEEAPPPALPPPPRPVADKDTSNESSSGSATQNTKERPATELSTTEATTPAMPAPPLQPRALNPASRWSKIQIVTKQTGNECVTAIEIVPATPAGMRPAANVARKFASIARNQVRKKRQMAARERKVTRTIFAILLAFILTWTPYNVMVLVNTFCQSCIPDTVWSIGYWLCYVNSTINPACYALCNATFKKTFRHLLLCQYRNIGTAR

[2] = target: T2, Muscarinic acetylcholine receptor M4 (Homo sapiens) (UniProt P08173); experiment: Positive allosteric modulation of human muscarinic M4 receptor expressed in CHO cells co-expressing Gqi5 assessed as increase in acetylcholine-induced calcium mobilization relative to acetylcholine; format: functional, cell-based
T2 sequence (whole entry): T1 sequence (P08173 whole entry)

[3] = target: T3, Muscarinic acetylcholine receptor M4 (Rattus norvegicus, UniProt P08485); experiment: Positive allosteric modulation of rat muscarinic M4 receptor
T3 sequence (P08485 whole entry): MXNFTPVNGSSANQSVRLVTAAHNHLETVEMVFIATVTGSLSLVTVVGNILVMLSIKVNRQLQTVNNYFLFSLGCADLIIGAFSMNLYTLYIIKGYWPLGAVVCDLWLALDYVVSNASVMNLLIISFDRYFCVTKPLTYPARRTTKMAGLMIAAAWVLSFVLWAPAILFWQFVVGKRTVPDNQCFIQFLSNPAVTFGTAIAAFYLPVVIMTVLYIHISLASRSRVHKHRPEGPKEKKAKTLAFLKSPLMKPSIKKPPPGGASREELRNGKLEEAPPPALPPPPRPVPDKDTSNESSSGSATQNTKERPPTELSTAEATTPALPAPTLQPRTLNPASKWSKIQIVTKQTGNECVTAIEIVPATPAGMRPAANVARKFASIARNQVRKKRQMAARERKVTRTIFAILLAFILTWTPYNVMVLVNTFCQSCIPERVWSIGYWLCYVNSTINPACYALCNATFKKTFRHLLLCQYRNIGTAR

[4] = Intrinsic clearance in rat microsomes; format: ADME, Microsome
[5] = Intrinsic clearance in human microsomes; format: ADME, Microsome
[6] = Unbound fraction in rat plasma; format: ADME, cell-free
[7] = Unbound fraction in human plasma; format: ADME, cell-free
[8] = Unbound fraction in rat brain; format: ADME, tissue-based
[9] = Brain to plasma permeability coefficient, Kp of the compound in Sprague-Dawley rat at 0.2 mg/kg, iv measured after 0.25 hrs; format: ADME, organism-based; details: brain and plasma
[10] = Unbound brain-to-plasma concentration ratio in Sprague-Dawley rat at 0.2 mg/kg, iv measured after 0.25 hrs; format: ADME, organism-based; details: brain and plasma, read-out: K(p,uu,brain)

EC50 [1] [nM]	%max [2] [%]	EC50 [3] [nM]	SMILES	further results
528	90		Cc1c2c(ccc3c(N4CC5(COC5)C4)ncnc32)nn1C	
462	83		Cn1nnc2ccc(C(=O)NC3CN(c4ncc(C#N)cc4Cl)C3)c(N)c21	
848	76		Cc1c2c(ccc3c(NC4CCCC4)ncnc32)nn1C	
1720	60		Cn1nnc2ccc(C(=O)NC3CN(c4ccc(C#N)cn4)C3)c(N)c21	
470	95	181	COc1ccc(CNc2ncnc3c2ccc2nn(C)c(C)c23)cc1F	
158	93	129	Cc1c2c(N)c(C(=O)NC3CN(c4ncc(C#N)cc4Cl)C3)ccc2nn1C	
467	98		Cc1c2c(ccc3c(CC(C)(C)C)ncnc32)nn1C	
379	86	226	COc1cc(N2CC(Nc3ncnc4c3ccc3nn(C)c(C)c34)C2)c(Cl)cn1	CLint scaled [4]: 120 mL/min/kg; CLint scaled [5]: 55 mL/min/kg; fraction unbound [6]: 0.002; fraction unbound [7]: 0.007; fraction unbound [8]: 0.005; Kp at 0.25 h [9]: 1.55; Kp uu at 0.25 h [10]: 3.88
552	86		Cc1c2c(ccc3c(NCc4ccc(C(C)(C)O)cc4)ncnc32)nn1C	%max ([2]; tested as the 2H-labelled form): 86%
91	63	157	Cn1nnc2ccc(C(=O)NC3CN(c4cc(Cl)ncc4Cl)C3)c(N)c21	CLint scaled [4]: 120 mL/min/kg; CLint scaled [5]: 27 mL/min/kg; fraction unbound [6]: 0.032; fraction unbound [7]: 0.084; fraction unbound [8]: 0.033; Kp at 0.25 h [9]: 0.17; Kp uu at 0.25 h [10]: 0.18
820	69		Cn1nnc2ccc3c(NC4CCCC4)ncnc3c21	
		721	Cn1nnc2ccc(C(=O)NC3CN(c4cc(Cl)ncc4Cl)C3)cc21	CLint scaled [4]: 10 mL/min/kg; CLint scaled [5]: 21 mL/min/kg; Kp at 0.25 h [9]: < 0.05; Kp uu at 0.25 h [10]: < 0.11
4500	84		Cn1nnc2ccc(C(=O)NC3CN(c4cccc(Cl)n4)C3)c(N)c21	
373	71	232	COc1cc(N2CC(NC(=O)c3ccc4nnn(C)c4c3N)C2)c(Cl)cn1	
6210	90		Cc1c2c(N)c(C(=O)NC3CN(c4ncc(F)cn4)C3)ccc2nn1C	
957	90		Cc1c2c(ccc3c(NCc4ccc(C(=O)NCC(C)(C)C)cc4)ncnc32)nn1C	
125	86	42	Cc1c2c(N)c(C(=O)NC3CN(c4cc(Cl)ncc4Cl)C3)ccc2nn1C	CLint scaled [4]: 180 mL/min/kg; CLint scaled [5]: 50 mL/min/kg; fraction unbound [6]: 0.01; fraction unbound [7]: 0.034; fraction unbound [8]: 0.025; Kp at 0.25 h [9]: 0.12; Kp uu at 0.25 h [10]: 0.3
1490	93		COc1cc(N2CC(Nc3ncnc4c3ccc3nnn(C)c34)C2)c(Cl)cn1	
886			[2H]C([2H])(Nc1ncnc2c1ccc1nn(C)c(C)c12)c1ccc(C(C)(C)O)cc1	

EC50 [1] [nM]	%max [2] [%]	EC50 [3] [nM]	SMILES	further results
1480	86		Cc1c2c(ccc3c(NCc4ccc(F)c(F)c4)ncnc32)nn1C	
475	100	322	Cc1c2c(ccc3c(NCc4ccc(C(=O)NC5CCC5)cc4)ncnc32)nn1C	
148	80	82	COc1cc(N2CC(NC(=O)c3ccc4nn(C)c(C)c4c3N)C2)c(Cl)cn1	CLint scaled [4]: 30 mL/min/kg; CLint scaled [5]: 9 mL/min/kg; fraction unbound [6]: 0.008; fraction unbound [7]: 0.045; fraction unbound [8]: 0.011; Kp at 0.25 h [9]: 0.18; Kp uu at 0.25 h [10]: 0.25
3600	80		Cn1nnc2ccc(C(=O)NC3CN(c4ncc(F)cc4Cl)C3)c(N)c21	
		259	Cc1c2cc(C(=O)NC3CN(c4cc(Cl)ncc4Cl)C3)ccc2nn1C	CLint scaled [4]: 28 mL/min/kg; CLint scaled [5]: 33 mL/min/kg; Kp at 0.25 h [9]: 0.05; Kp uu at 0.25 h [10]: 0.04
239	100	168	Cc1c2c(ccc3c(NCc4ccc(C(=O)NC5CCCC5)cc4)ncnc32)nn1C	
137	80	112	Cc1c2c(N)c(C(=O)NC3CN(c4ccc(C(F)(F)F)nc4)C3)ccc2nn1C	
3550	103		Cc1c2c(N)c(C(=O)NC3CN(c4ncccc4F)C3)ccc2nn1C	
2430	94		Cn1nnc2ccc(C(=O)NC3CN(c4ccc(F)c(F)c4)C3)c(N)c21	
1720	97		Cn1nnc2ccc3c(NCc4ccc(C(C)(C)O)cc4)ncnc3c21	
364	65	167	Cn1nnc2ccc(C(=O)NC3CN(c4ncc(Cl)cc4F)C3)c(N)c21	
244	96	72	Cc1c2c(N)c(C(=O)NC3CN(c4ncc(Cl)cc4F)C3)ccc2nn1C	
592	74		COc1ccc(CNc2ncnc3c2ccc2nnn(C)c23)cc1F	
275	101	254	Cc1c2c(ccc3c(NC4CN(c5cc(Cl)ncc5Cl)C4)ncnc32)nn1C	CLint scaled [4]: 170 mL/min/kg; CLint scaled [5]: 120 mL/min/kg; fraction unbound [6]: 0.004; fraction unbound [7]: 0.008; fraction unbound [8]: 0.002; Kp at 0.25 h [9]: 0.21; Kp uu at 0.25 h [10]: 0.11
619	85		Cc1c2c(N)c(C(=O)NC3CN(c4ccc(F)c(F)c4)C3)ccc2nn1C	
1450	78		Cc1c2c(N)c(C(=O)NC3CN(c4cccc(Cl)n4)C3)ccc2nn1C	
814	79		Cn1nnc2ccc(C(=O)NC3CN(c4ccnc(C(F)(F)F)c4)C3)c(N)c21	
624	74		Cc1c2c(ccc3c(N4CCCC4)ncnc32)nn1C	
63	81	148	Cn1nnc2ccc3c(NC4CN(c5cc(Cl)ncc5Cl)C4)ncnc3c21	CLint scaled [4]: 110 mL/min/kg; CLint scaled [5]: 21 mL/min/kg; fraction unbound [6]: 0.007; fraction unbound [7]: 0.021; fraction unbound [8]: 0.003; Kp at 0.25 h [9]: 0.25; Kp uu at 0.25 h [10]: 0.11
